According to patent US10550105B2 (Ribon Therapeutics Inc., priority 2018, dated 2020):

The compounds below were run against PARP7 (Homo sapiens (Human), UniProt Q7Z3E1) (assay: Enzymatic assay for inhibition of PARP7: TR-FRET displacement of biotinylated Probe A from the TIPARP active site). Settings: Table A-1.
Assay type: binding
Method in brief: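 Displacement of biotinylated Probe A from TIPARP was measured as the 665/615 nm time-resolved FRET ratio (excitation 320 nm, 90 μs delay) after a further 30 min at 25 °C. Inhibition across compound concentrations was fitted by dose-response regression, with the Hill slope free or fixed at 1 (3-parameter fit).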

PARP7, sequence (Q7Z3E1 whole entry): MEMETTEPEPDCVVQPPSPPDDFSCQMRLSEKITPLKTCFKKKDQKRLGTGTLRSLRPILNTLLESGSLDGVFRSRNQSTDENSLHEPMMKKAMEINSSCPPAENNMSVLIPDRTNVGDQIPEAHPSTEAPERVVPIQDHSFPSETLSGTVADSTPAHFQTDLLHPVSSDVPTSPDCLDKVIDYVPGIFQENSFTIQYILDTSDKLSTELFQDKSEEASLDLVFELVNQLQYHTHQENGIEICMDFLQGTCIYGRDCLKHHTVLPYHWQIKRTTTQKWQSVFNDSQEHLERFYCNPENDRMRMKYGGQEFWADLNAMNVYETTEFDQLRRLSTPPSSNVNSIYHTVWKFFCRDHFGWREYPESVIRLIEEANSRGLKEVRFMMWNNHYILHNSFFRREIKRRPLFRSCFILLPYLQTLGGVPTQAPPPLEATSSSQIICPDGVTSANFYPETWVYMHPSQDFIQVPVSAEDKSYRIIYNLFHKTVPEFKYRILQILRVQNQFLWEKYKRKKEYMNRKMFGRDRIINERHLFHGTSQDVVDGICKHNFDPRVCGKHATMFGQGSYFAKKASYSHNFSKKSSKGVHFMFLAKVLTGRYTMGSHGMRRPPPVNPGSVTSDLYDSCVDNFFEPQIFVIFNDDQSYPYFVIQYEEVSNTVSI

Structure (SMILES) | IC50
N#Cc1ccc(N2CCN(C(=O)C/C=C\OC[C@@H]3c4ccccc4CN3c3cn[nH]c(=O)c3C(F)(F)F)CC2)nc1 (single isomer, unassigned; isomer a) [Example 79 Isomer A] | < 100 nM
O=C(CCOC[C@@H]1CCCN1c1cn[nH]c(=O)c1C(F)(F)F)NC1CCC(Nc2ccccn2)CC1 (single isomer, unassigned; isomer a) [Example 81 Isomer A] | 100 to 1000 nM
N#Cc1ccc(N2CCN(C(=O)[C@H]3CC[C@H](OC[C@@H]4CCCN4c4cn[nH]c(=O)c4C(F)(F)F)CC3)CC2)nc1 (single isomer, unassigned; isomer a) [Example 82 Isomer A] | < 100 nM
N#Cc1ccc(N2CCN(C(=O)C/C=C\OC[C@H]3c4ccccc4CN3c3cn[nH]c(=O)c3C(F)(F)F)CC2)nc1 (single isomer, unassigned; isomer b) [Example 79 Isomer B] | < 100 nM
O=C(CCOC[C@@H]1CCCN1c1cn[nH]c(=O)c1C(F)(F)F)N[C@H]1CC[C@@H](Nc2ccccn2)CC1 (single isomer, unassigned; isomer b) [Example 81 Isomer B] | ≥ 1000 nM
N#Cc1ccc(N2CCN(C(=O)[C@H]3CC[C@@H](OC[C@@H]4CCCN4c4cn[nH]c(=O)c4C(F)(F)F)CC3)CC2)nc1 (single isomer, unassigned; isomer b) [Example 82 Isomer B] | 100 to 1000 nM
O=C(CCOC[C@@H](Nc1cn[nH]c(=O)c1C(F)(F)F)[C@H]1CCOC1)N1CCN(c2ncc(C(F)(F)F)cn2)CC1 (single isomer, unassigned; isomer c) [Example 614 Isomer C] | < 100 nM
CC(=O)N1CCC(Oc2cc3c(cc2F)CN(c2cn[nH]c(=O)c2C(F)(F)F)C3)CC1 [Example 1, 5-[5-[(1-acetylpiperidin-4-yl)oxy]-6-fluoro-2,3-dihydro-1 H-isoindol-2-yl]-4-(trifluoromethyl)-2,3-dihydropyridazin-3-one] | < 100 nM
CC(=O)N1CCC(Oc2ccc(F)c3c2CN(c2cn[nH]c(=O)c2C(F)(F)F)C3)CC1 [Example 2, 5-[4-[(1-acetylpiperidin-4-yl)oxy]-7-fluoro-2,3-dihydro-1H-isoindol-2-yl]-4-(trifluoromethyl)-2,3-dihydropyridazin-3-one] | < 100 nM
O=c1[nH]ncc(N2Cc3cc(OC4CCNCC4)cc(F)c3C2)c1C(F)(F)F [Example 3, 5-[4-fluoro-6-(piperidin-4-yloxy)-2,3-dihydro-1H-isoindol-2-yl]-4-(trifluoromethyl)-2,3-dihydropyridazin-3-one; formic acid] | < 100 nM
CC(=O)N1CCC(Oc2cc(F)c3c(c2)CN(c2cn[nH]c(=O)c2C(F)(F)F)C3)CC1 [Example 4, 5-[6-[(1-acetylpiperidin-4-yl)oxy]-4-fluoro-2,3-dihydro-1H-isoindol-2-yl]-4-(trifluoromethyl)-2,3-dihydropyridazin-3-one] | < 100 nM
CC(=O)N1CCC(Oc2cc3c(cc2F)CN(c2cn[nH]c(=O)c2C(F)(F)F)C3C)CC1 (centres unmarked) [Example 5, 5-[6-[(1-acetylpiperidin-4-yl)oxy]-5-fluoro-1-methyl-2,3-dihydro-1H-isoindol-2-yl]-4-(trifluoromethyl)-2,3-dihydropyridazin-3-one] | 100 to 1000 nM
CN1CCC(Oc2ccc3c(n2)CN(c2cn[nH]c(=O)c2C(F)(F)F)C3)CC1 [Example 6, 5-[2-[(1-methylpiperidin-4-yl)oxy]-5H,6H,7H-pyrrolo[3,4-b]pyridin-6-yl]-4-(trifluoromethyl)-2,3-dihydropyridazin-3-one] | 100 to 1000 nM
O=c1[nH]ncc(N2Cc3cc(OC4CCNCC4)cnc3C2)c1C(F)(F)F [Example 7, 5-[3-(piperidin-4-yloxy)-5H,6H,7H-pyrrolo[3,4-b]pyridin-6-yl]-4-(trifluoromethyl)-2,3-dihydropyridazin-3-one] | 100 to 1000 nM
CC(=O)N1CCC(Oc2cnc3c(c2)CN(c2cn[nH]c(=O)c2C(F)(F)F)C3)CC1 [Example 8, 5-[3-[(1-acetylpiperidin-4-yl)oxy]-5H,6H,7H-pyrrolo[3,4-b]pyridin-6-yl]-4-(trifluoro-methyl)-2,3-dihydropyridazin-3-one] | 100 to 1000 nM
O=c1[nH]ncc(N2Cc3nccc(OC4CCNCC4)c3C2)c1C(F)(F)F [Example 9, 5-[4-(piperidin-4-yloxy)-5H,6H,7H-pyrrolo[3,4-b]pyridin-6-yl]-4-(trifluoromethyl)-2,3-dihydropyridazin-3-one] | 100 to 1000 nM
O=c1[nH]ncc(N2Cc3nccc(OCCN4CCOCC4)c3C2)c1C(F)(F)F [Example 10, 5-[4-[2-(morpholin-4-yl)ethoxy]-5H,6H,7H-pyrrolo[3,4-b]pyridin-6-yl]-4-(trifluoromethyl)-2,3-dihydropyridazin-3-one] | 100 to 1000 nM
COc1cc2c(cn1)CN(c1cn[nH]c(=O)c1C(F)(F)F)C2 [Example 11, 5-[6-methoxy-1H,2H,3H-pyrrolo[3,4-c]pyridin-2-yl]-4-(trifluoromethyl)-2,3-dihydropyridazin-3-one] | < 100 nM
O=c1[nH]ncc(N2Cc3cnc(OC4CCNCC4)cc3C2)c1C(F)(F)F [Example 12, 5-[6-(piperidin-4-yloxy)-1H,2H,3H-pyrrolo[3,4-c]pyridin-2-yl]-4-(trifluoromethyl)-2,3-dihydropyridazin-3-one] | 100 to 1000 nM
CC(=O)N1CCC(Oc2cc3c(cn2)CN(c2cn[nH]c(=O)c2C(F)(F)F)C3)CC1 [Example 13] | < 100 nM
CN(C)CCOc1cc2c(cc1F)CN(c1cn[nH]c(=O)c1C(F)(F)F)C2 [Example 14, 5-[5-[2-(dimethylamino)ethoxy]-6-fluoro-2,3-dihydro-1H-isoindol-2-yl]-4-(trifluoromethyl)-2,3-dihydropyridazin-3-one; formic acid] | < 100 nM
O=c1[nH]ncc(N2Cc3ccnc(OCc4cccnc4)c3C2)c1C(F)(F)F [Example 15, 5-[4-(pyridin-3-ylmethoxy)-1H,2H,3H-pyrrolo[3,4-c]pyridin-2-yl]-4-(trifluoromethyl)-2,3-dihydropyridazin-3-one] | < 100 nM

Further lines, results first:

IC50 | Structure (SMILES)
≥ 1000 nM | N#Cc1ccc(N2CCN(C(=O)C[C@@H]3CC[C@@H]([C@H]4c5ccccc5CN4c4cn[nH]c(=O)c4C(F)(F)F)O3)CC2)nc1 (single isomer, unassigned) [Example 612 Isomer D]
≥ 1000 nM | O=C(CCOC[C@@H](Nc1cn[nH]c(=O)c1C(F)(F)F)[C@@H]1CCOC1)N1CCN(c2ncc(C(F)(F)F)cn2)CC1 (single isomer, unassigned) [Example 614 Isomer A]
< 100 nM | O=C(CCOC[C@H](Nc1cn[nH]c(=O)c1C(F)(F)F)[C@H]1CCOC1)N1CCN(c2ncc(C(F)(F)F)cn2)CC1 (single isomer, unassigned) [Example 614 Isomer B]
< 100 nM | C[C@@H](COC[C@H](N)CC(=O)N1CCN(c2ncc(C(F)(F)F)cn2)CC1)Nc1cn[nH]c(=O)c1C(F)(F)F (single isomer, unassigned) [Example 617 Isomer A]
< 100 nM | C[C@@H](COC[C@@H](N)CC(=O)N1CCN(c2ncc(C(F)(F)F)cn2)CC1)Nc1cn[nH]c(=O)c1C(F)(F)F (single isomer, unassigned) [Example 617 Isomer B]
< 100 nM | C[C@@H](COCCC(=O)N1CCN(c2ncc(C(F)(F)F)cn2)C[C@@H]1C)Nc1cn[nH]c(=O)c1C(F)(F)F (single isomer, unassigned) [Example 619 Isomer A]
< 100 nM | C[C@@H]1CN(c2ncc(C(F)(F)F)cn2)CCN1C(=O)CCOC[C@H](C)Nc1cn[nH]c(=O)c1C(F)(F)F (single isomer, unassigned) [Example 619 Isomer B]
100 to 1000 nM | COC[C@H](COCCC(=O)N1CCN(c2ncc(C(F)(F)F)cn2)CC1)Sc1cn[nH]c(=O)c1C(F)(F)F (single isomer, unassigned) [Example 692]
100 to 1000 nM | O=C(COC[C@@H]1CCCN1c1cn[nH]c(=O)c1C(F)(F)F)N[C@H]1CC[C@H](Nc2ccccn2)CC1 (single isomer, unassigned; isomer a) [Example 80 Isomer A]
< 100 nM | N#Cc1ccc(N2CCN(C(=O)C3CC(OC[C@@H]4CCCN4c4cn[nH]c(=O)c4C(F)(F)F)C3)CC2)nc1 (single isomer, unassigned; isomer a) [Example 95 Isomer A]
100 to 1000 nM | O=C(COC[C@@H]1CCCN1c1cn[nH]c(=O)c1C(F)(F)F)NC1CCC(Nc2ccccn2)CC1 (single isomer, unassigned; isomer b) [Example 80 Isomer B]
< 100 nM | N#Cc1ccc(N2CC3CN(C(=O)CCOC[C@@H]4CCCN4c4cn[nH]c(=O)c4C(F)(F)F)CC3C2)nc1 (stereo in doubt) [Example 113, (S)-6-[5-(3-[[1-[6-oxo-5-(trifluoromethyl)-1,6-dihydropyridazin-4-yl]pyrrolidin-2-yl]methoxy]propanoyl)-octahydropyrrolo[3,4-c]pyrrol-2-yl]pyridine-3-carbonitrile]
100 to 1000 nM | O=c1[nH]ncc(N2Cc3ccnc(OC4CCNCC4)c3C2)c1C(F)(F)F [Example 16, 5-[4-(piperidin-4-yloxy)-1H,2H,3H-pyrrolo[3,4-c]pyridin-2-yl]-4-(trifluoromethyl)-2,3-dihydropyridazin-3-one]
< 100 nM | O=c1[nH]ncc(N2Cc3ccc(CNc4ccncc4)cc3C2)c1C(F)(F)F [Example 17, 5-(5-[[(pyridin-4-yl)amino]methyl]-2,3-dihydro-1H-isoindol-2-yl)-4-(trifluoromethyl)-2,3-dihydropyridazin-3-one]
< 100 nM | O=c1[nH]ncc(N2Cc3cc(F)c(OCCN4CCOCC4)cc3C2)c1C(F)(F)F [Example 19, 5-[5-fluoro-6-[2-(morpholin-4-yl)ethoxy]-2,3-dihydro-1H-isoindol-2-yl]-4-(trifluoromethyl)-2,3-dihydropyridazin-3-one]
< 100 nM | O=c1[nH]ncc(N2Cc3cc(F)c(OCC4CCNCC4)cc3C2)c1C(F)(F)F [Example 20, 5-[5-fluoro-6-(piperidin-4-ylmethoxy)-2,3-dihydro-1H-isoindol-2-yl]-4-(trifluoromethyl)-2,3-dihydropyridazin-3-one]
